Measured values as given in PMC5785958, “New role of phenothiazine derivatives as peripherally acting CB1 receptor antagonizing anti-obesity agents” (Scientific Reports, 2018).

How the values were obtained:
[1] = system: Wistar rats; experiment: Acute hypophagic response in 24 h food-deprived rats; type: in vivo, rat; conditions: for effect on food intake (in words): 2 h
Experimental: As a preliminary screening, the synthesized compounds were evaluated for acute hypophagia in rats and the results are summarized in Fig. 5. Twenty four hour food deprived Wistar rats were given weighed amounts of food pellets after administration of the test compounds. Quantum of food consumed by the control group of animals was considered as 100%.
Male Wistar rats weighing 200–250 g were used in the present study to assess the acute hypophagic response. Animals were housed individually in a plexi-glass cage in a temperature and humidity controlled room with a 12 h light/dark cycle. Standard chow pellets and water were made available ad libitum. Animals were handled daily for a week before performing the actual experiments. The animal study protocol was approved by the Institutional Animal Ethics Committee (IAEC) of Faculty of Pharmacy, The Maharaja Sayajirao University of Baroda (Approval no. MSU/IAEC/2014-15/1401). The experiments were conducted in accordance to the guidelines of CPCSEA (Committee for the Purpose of Control and Supervision of Experiments on Animals), Ministry of Environment & Forests, Govt. of India. We tried our best to reduce the number of animals and their suffering.
The acute effect of the synthesized test compounds on feeding behavior was assessed in 24 h food-deprived animals. Before performing the experiments, the bedding material was removed from the cage. The animals were deprived of feed for 24 h with free access to water. The fasted animals were administered with the test compounds (10 mg/kg, p.o.). After 30 min of administration, weighed amounts of food pellets were served to the animals. Amount of food pellets and food spillage remaining after 2 h were weighed to find out the amount of food consumed by the animals.

[2] = PAMPA-BBB in vitro permeability assay; type: in vitro ADME, porcine; set-up: key to Prediction (penetration in CNS): CNS- indicates low passive CNS permeation; conditions: for Prediction (penetration in CNS): from PAMPA-BBB Pe, Pe less than 3.8 × 10^−6 cm s^−1 = low BBB permeation; for Papp at 120 min, 100 µg/ml: pig, PAMPA-BBB, porcine brain lipid, PBS/ethanol (70:30), 25 °C, mean ± SEM of three experiments, read-out: Pe
Experimental: As discussed above, BBB permeation of the available CB1 receptor antagonists limits their therapeutic utility. A successful CB1 receptor antagonist to be used as anti-obesity agent must be devoid of BBB permeability. […] In this study, the ability of the test compounds to cross the BBB was determined by the well established in vitro model PAMPA-BBB assay. This simple and rapid model has the advantage to predict passive BBB permeation with high accuracy[57],[58]. The in vitro permeability (Pe) of the test compounds through the lipid extract of porcine brain was determined in PBS/ethanol (70:30).
To assess the in vivo brain permeability potential of the test compounds, PAMPA assay for BBB was performed as reported by Di. et al.[57]. The donor microplate (polyvinylidene fluoride (PVDF) membrane, diameter 25 mm, pore size 0.45 µm Millipore) and the acceptor microplate were used for the experiment. The acceptor microplate was filled with 200 µl phosphate buffer saline (PBS) and ethanol in the ratio of 70:30 whereas the donor microplate filter surface was impregnated with porcine brain lipid (Avanti Polar Lipids) in dodecane (Sigma) (4 µl of 20 mg/ml). 200 µl of the test compound (100 µg/ml in PBS/ethanol) was added to the donor well. A sandwich was formed by placing the donor plate carefully on the acceptor plate, and the plates were kept undisturbed for 120 min at 25 °C. The donor plate was carefully detached after the incubation period and concentration of the test compound in the acceptor wells was determined using UV spectroscopy. Each sample was analyzed in four wells at five different wavelengths, and at least in three independent runs. Assay validation was performed by using nine commercial quality standard drugs of known BBB permeability[75] in which the reported permeability values of the standards were compared with their experimental permeability values, which gave a linear relationship, Pe(exp.) = 1.171Pe(bibl.) + 1.489 (R^2 = 0.983)[57],[58].

[3] = 24 h fasted male Wistar rats, 10 mg/kg p.o., food served after 30 min, intake over 2 h
[4] = 24 h fasted male Wistar rats, 10 mg/kg p.o.

Row | Structure (SMILES) | Prediction (penetration in CNS) [2] | Papp at 120 min, 100 µg/ml [2] | melting point | food intake (control = 100%) [1, 3] | effect on food intake (in words) [1, 4] | food intake (control = 100%) ([1]; 24 h fasted male Wistar rats, 10 mg/kg p.o., food served after 30 min, intake over 2 h, 10 mg/kg) | food intake (control = 100%) ([1]; po, 10 mg/kg)
1 | N#Cc1cnc(SCC(=O)N2c3ccccc3Sc3ccc(Cl)cc32)nc1N [Compound 22, 4-Amino-2-(2-(2-chloro-10H-phenothiazin-10-yl)-2-oxoethylthio)pyrimidine-5-carbonitrile] | CNS- | 2.28 ± 0.11 ×10⁻⁶ cm/s | 222 to 224 °C | 62–74% |  |  | 
2 | O=C(CSc1nnc(-c2ccncc2)o1)N1c2ccccc2Sc2ccc(C(F)(F)F)cc21 [Compound 29, 2-(5-(4-Pyridyl)-1,3,4-oxadiazol-2-ylthio)-1-(2-trifluoromethyl-10H-phenothiazin-10-yl)ethanone] |  |  | 156 to 158 °C |  |  |  | 
3 | COc1ccc2c(c1)N(C(=O)CSc1nnc(-c3ccncc3)n1N)c1ccccc1S2 [Compound 35, 2-(4-Amino-5-(4-pyridyl)-4H-1,2,4-triazol-3-ylthio)-1-(2-methoxy-10H-phenothiazin-10-yl)ethanone] |  |  | 188 to 190 °C |  |  |  | 
4 | CCOC(=O)c1cnc(SCC(=O)N2c3ccccc3Sc3ccc(Cl)cc32)nc1N [Compound 26, Ethyl 4-amino-2-(2-(2-chloro-10H-phenothiazin-10-yl)-2-oxoethylthio)pyrimidine-5-carboxylate] | CNS- | 3.66 ± 0.67 ×10⁻⁶ cm/s | 156 to 158 °C | 62–74% |  |  | 
5 | N#Cc1cnc(SCC(=O)N2c3ccccc3Sc3ccc(C(F)(F)F)cc32)nc1N [Compound 5, 4-Amino-2-(2-(2-trifluoromethyl-10H-phenothiazin-10-yl)-2-oxoethylthio)pyrimidine-5-carbonitrile] | CNS- | 2.78 ± 0.14 ×10⁻⁶ cm/s | 218 to 220 °C |  | weak short acting hypophagic activity | 62–74% | 62%
6 | N#Cc1cnc(SCC(=O)N2c3ccccc3Sc3ccccc32)nc1N [Compound 24, 4-Amino-2-(2-oxo-2-(10H-phenothiazin-10-yl)ethylthio)pyrimidine-5-carbonitrile] |  |  | 241 to 243 °C |  |  |  | 
7 | Nn1c(SCC(=O)N2c3ccccc3Sc3ccc(C(F)(F)F)cc32)nnc1-c1ccncc1 [Compound 33, 2-(4-Amino-5-(4-pyridyl)-4H-1,2,4-triazol-3-ylthio)-1-(2-(trifluoromethyl)-10H-phenothiazin-10-yl)ethanone] | CNS- | 1.05 ± 0.22 ×10⁻⁶ cm/s | 202 to 204 °C | 80–99% | did not impact the food intake |  | 
8 | O=C(CSc1nnc(-c2ccncc2)o1)N1c2ccccc2Sc2ccc(Cl)cc21 [Compound 30, 1-(2-Chloro-10H-phenothiazin-10-yl)-2-(5-(4-pyridyl)-1,3,4-oxadiazol-2-ylthio)ethanone] |  |  | 194 to 196 °C |  |  |  | 
9 | O=C(CSc1nnc(-c2ccncc2)o1)N1c2ccccc2Sc2ccccc21 [Compound 32, 1-(10H-Phenothiazin-10-yl)-2-(5-(4-pyridyl)-1,3,4-oxadiazol-2-ylthio)ethanone] | CNS- | 3.22 ± 0.63 ×10⁻⁶ cm/s | 212 to 214 °C | 80–99% | no effect on food intake |  | 
10 | COc1ccc2c(c1)N(C(=O)CSc1nnc(-c3ccncc3)o1)c1ccccc1S2 [Compound 31, 1-(2-Methoxy-10H-phenothiazin-10-yl)-2-(5-(4-pyridyl)-1,3,4-oxadiazol-2-ylthio)-ethanone] |  |  | 166 to 168 °C |  |  |  | 
11 | CCOC(=O)c1cnc(SCC(=O)N2c3ccccc3Sc3ccccc32)nc1N [Compound 28, Ethyl 4-amino-2-(2-oxo-2-(10H-phenothiazin-10-yl)ethylthio)pyrimidine-5-carboxylate] |  |  | 202 to 204 °C |  |  |  | 

More lines, main results first:

Row | Prediction (penetration in CNS) [2] | Papp at 120 min, 100 µg/ml [2] | melting point | Structure (SMILES) | food intake (control = 100%) [1, 3] | effect on food intake (in words) [1, 4] | food intake (control = 100%) ([1]; 24 h fasted male Wistar rats, 10 mg/kg p.o., food served after 30 min, intake over 2 h, 10 mg/kg) | food intake (control = 100%) ([1]; po, 10 mg/kg)
12 | CNS- | 2.84 ± 0.28 ×10⁻⁶ cm/s | 118 to 120 °C | CCOC(=O)c1cnc(SCCCN2c3ccccc3Sc3ccc(C(F)(F)F)cc32)nc1N [Compound 46, Ethyl 4-amino-2-(3-(2-trifluoromethyl-10H-phenothiazin-10-yl)propylthio)pyrimidine-5-carboxylate] | 62–74% |  |  | 
13 | CNS- | 3.58 ± 0.73 ×10⁻⁶ cm/s | 158 to 160 °C | COc1ccc2c(c1)N(CCCSc1ncc(C#N)c(N)n1)c1ccccc1S2 [Compound 44, 4-Amino-2-(3-(2-methoxy-10H-phenothiazin-10-yl)propylthio)pyrimidine-5-carbonitrile] | 62–74% |  |  | 
14 |  |  | 117 to 119 °C | N#Cc1cnc(SCCCN2c3ccccc3Sc3ccccc32)nc1N [Compound 45, 4-Amino-2-(3-(10H-phenothiazin-10-yl)propylthio)pyrimidine-5-carbonitrile] |  |  |  | 
15 | CNS- | 3.47 ± 0.66 ×10⁻⁶ cm/s | 138 to 140 °C | N#Cc1cnc(SCCCN2c3ccccc3Sc3ccc(Cl)cc32)nc1N [Compound 43, 4-Amino-2-(3-(2-chloro-10H-phenothiazin-10-yl)propylthio)pyrimidine-5-carbonitrile] | 62–74% |  |  | 
16 |  |  | 106 to 108 °C | CCOC(=O)c1cnc(SCCCN2c3ccccc3Sc3ccc(OC)cc32)nc1N [Compound 48, Ethyl 4-amino-2-(3-(2-methoxy-10H-phenothiazin-10-yl)propylthio)pyrimidine-5-carboxylate] |  |  |  | 
17 | CNS- | 2.6 ± 0.18 ×10⁻⁶ cm/s | 164 to 166 °C | N#Cc1cnc(SCCCN2c3ccccc3Sc3ccc(C(F)(F)F)cc32)nc1N [Compound 42, 4-Amino-2-(3-(2-trifluoromethyl-10H-phenothiazin-10-yl)propylthio)pyrimidine-5-carbonitrile] | 80–99% | no effect on the food intake |  | 
18 |  |  | 146 to 148 °C | CCOC(=O)c1cnc(SCCCN2c3ccccc3Sc3ccccc32)nc1N [Compound 49, Ethyl 4-amino-2-(3-(10H-phenothiazin-10-yl)propylthio)pyrimidine-5-carboxylate] |  |  |  | 
19 |  |  | 232 to 234 °C | Nn1c(SCC(=O)N2c3ccccc3Sc3ccccc32)nnc1-c1ccncc1 [Compound 36, 2-(4-Amino-5-(4-pyridyl)-4H-1,2,4-triazol-3-ylthio)-1-(10H-phenothiazin-10-yl)ethanone] |  |  |  | 
20 | CNS- | 3.28 ± 0.38 ×10⁻⁶ cm/s | 120 to 122 °C | CCOC(=O)c1cnc(SCCCN2c3ccccc3Sc3ccc(Cl)cc32)nc1N [Compound 47, Ethyl 4-amino-2-(3-(2-chloro-10H-phenothiazin-10-yl)propylthio)pyrimidine-5-carboxylate] | 62–74% |  |  | 
